Values after ≈ are worked out from the molar mass of the structure shown.
Tests used:
S. aureus = assay: MIC by microdilution broth method (NCCLS), S. aureus Broth; type: cell-based; conditions: Staphylococcus aureus, cation adjusted Mueller-Hinton broth, 35° C., 16-20 hours, read-out: MIC (μg/mL) S. aureus Broth
Procedure: (§1) Minimal inhibitory concentration (MIC) has been an indicator of in vitro antibacterial activity widely used in the art. The in vitro antimicrobial activity of the compounds was determined by the microdilution broth method following the test method from the National Committee for Laboratory Standards (NCCLS). This method is described in the NCCLS Document M7-A4, Vol. 17, No.2, “Methods for Dilution Antimicrobial Susceptibility Test for Bacteria that Grow Aerobically-Fourth Edition”, which is incorporated herein by reference.
(§2) In this method two-fold serial dilutions of drug in cation adjusted Mueller-Hinton broth are added to wells in microdilution trays. The test organisms are prepared by adjusting the turbidity of actively growing broth cultures so that the final concentration of test organism after it is added to the wells is approximately 5×10^4 CFU/well.
(§3) Following inoculation of the microdilution trays, the trays are incubated at 35° C. for 16-20 hours and then read. […] The amount of growth in the wells containing the test compound is compared with the amount of growth in the growth-control wells (no test compound) used in each tray. As set forth in Table 1, compounds of the present invention were tested against a variety of Gram positive and Gram negative pathogenic bacteria resulting in a range of activities, from 1 to ≧128 μg/mL depending on the organism tested.

MRSA OC 2878 = assay: MIC by microdilution broth method (NCCLS), MRSA OC 2878; type: cell-based, Staphylococcus aureus; conditions: Staphylococcus aureus, MRSA, cation adjusted Mueller-Hinton broth, 35° C., 16-20 hours, read-out: MIC (μg/mL) MRSA OC 2878
Procedure: as §1, §2, §3

E. faecium OC3312 = assay: MIC by microdilution broth method (NCCLS), E. faecium OC3312; type: cell-based; conditions: Enterococcus faecium, OC3312, microdilution broth, cation adjusted Mueller-Hinton broth, 35° C., 16-20 hours; read-out: MIC (μg/mL) E. faecium OC3312
Procedure: as §1, §2, §3

Structure (SMILES)	MIC (S. aureus) [µg/mL]	MIC (MRSA OC 2878) [µg/mL]	melting point [°C]	MIC (E. faecium OC3312) [µg/mL]
CC(=O)NC[C@H]1CN(c2ccc(OC3CCN(S(C)(=O)=O)CC3)c(F)c2)C(=O)O1 [Compound 6, (S)-N-[[3-[3-Fluoro-4-{N-(methanesulfonyl)piperidinyl-4-oxy}phenyl]-2-oxo-5-oxazolidinyl]methyl]acetamide]	4 (≈ 9.31 µM)	4 (≈ 9.31 µM)	123 to 125	8 (≈ 18.6 µM)
CC(=O)NC[C@H]1CN(c2ccc(OC3CCN(c4ccc(C#N)cn4)CC3)c(F)c2)C(=O)O1 [Compound 14, (S)-N-[[3-[3-Fluoro-4-{N-(5-cyano-2-pyridyl)piperidinyl-4-oxy}phenyl]-2-oxo-5-oxazolidinyl]methyl]acetamide]	4 (≈ 8.82 µM)	4 (≈ 8.82 µM)	78 to 84	8 (≈ 17.6 µM)
CC(=O)NC[C@H]1CN(c2ccc(OC3CCN(C(=O)CN)CC3)c(F)c2)C(=O)O1 [Compound 16]	32 (≈ 78.3 µM)	32 (≈ 78.3 µM)	142 to 146	32 (≈ 78.3 µM)
CC(=O)NC[C@H]1CN(c2ccc(OC3CCN(C(=O)OC(C)(C)C)CC3)c(F)c2)C(=O)O1 [Compound 1, (S)-N-[[3-[3-Fluoro-4-{N-(t-butoxycarbonyl)piperidinyl-4-oxy}phenyl]-2-oxo-5-oxazolidinyl]methyl]acetamide]	32 (≈ 70.9 µM)	16 (≈ 35.4 µM)	179 to 180	> 32

Next, values leading:

MIC (S. aureus) [µg/mL]	MIC (MRSA OC 2878) [µg/mL]	melting point [°C]	MIC (E. faecium OC3312) [µg/mL]	Structure (SMILES)
64 (≈ 146 µM)	64 (≈ 146 µM)	180 to 182	> 128	CC(=O)NC[C@H]1CN(c2ccc(OC3CCN(C(=O)c4ccccc4)CC3)nc2)C(=O)O1 [Compound 46, (5S)-3-[6-{N-(Benzoyl)piperidinyl-4-oxy}-pyridin-3-yl]-5-methylacetamide-oxazolidin-2-one]
8 (≈ 17.5 µM)	8 (≈ 17.5 µM)	55 to 58	16 (≈ 35.1 µM)	CC(=O)NC[C@H]1CN(c2ccc(OC3CCN(C(=O)c4ccccn4)CC3)c(F)c2)C(=O)O1 [Compound 20, (S)-N-[[3-[3-Fluoro-4-{N-(2-pyridoyl)piperidinyl-4-oxy}phenyl]-2-oxo-5-oxazolidinyl]methyl]acetamide]
8 (≈ 17.8 µM)	16 (≈ 35.5 µM)	66 to 68	64 (≈ 142 µM)	CC(=O)NCC(=O)N1CCC(Oc2ccc(N3C[C@H](CNC(C)=O)OC3=O)cc2F)CC1 [Compound 18, (S)-N-[[3-[3-Fluoro-4-{N-(α-N-acetylaminoacetyl)piperidinyl-4-oxy}phenyl]-2-oxo-5-oxazolidinyl]methyl]acetamide]
8 (≈ 17.3 µM)	4 (≈ 8.67 µM)	48 to 51	8 (≈ 17.3 µM)	CC(=O)NC[C@H]1CN(c2ccc(OC3CCN(C(=O)c4cccs4)CC3)c(F)c2)C(=O)O1 [Compound 22, (S)-N-[[3-[3-Fluoro-4-{N-(2-thienylcarbonyl)piperidinyl-4-oxy}phenyl]-2-oxo-5-oxazolidinyl]methyl]acetamide]

Source: patent publication US20020103377A1, “Piperidinyloxy and pyrrolidinyloxy oxazolidinone antibacterials” (priority 1999, published 2002)
